US9187460B2, “Estrogen receptor modulators and uses thereof” (SERAGON PHARMACEUTICALS, INC., priority 2011, dated 2015)

Assays:
[1] = tested on: MCF-7 cells; test: Breast Cancer Cell Viability Assay (MCF7 Viability Assay); type: cell-based; conditions: for IC50: Homo sapiens, MCF7, 120 h, read-out: MCF7 Viability Assay IC50; for MCF7 Viability Assay Max Response: MCF-7 cells, 5 days' compound exposure, CellTiter-Glo
[2] = target: T1, ER-α (Homo sapiens, UniProt P03372); test: Breast Cancer Cell ER-α in Cell Western Assay (SP1); type: cell-based; conditions: MCF7, read-out: ER In-Cell Western Assay (SP1); Max Response
T1 construct: endogenous in cells; host or cells: MCF-7
Method: Breast Cancer Cell ER-α in Cell Western Assay (SP1)
MCF-7 cells were adjusted to a concentration of 200,000 cells per mL in RPMI containing 10% charcoal-stripped FBS and 20 mM HEPES. 16 microliters of the cell suspension (3200 cells) was added to each well of a poly-D-lysine 384 well plate, and the cells were incubated overnight to allow the cells to adhere. The following day an eleven point, serial semilog dilution of each compound was added to the cells in 16 μL at a final concentration ranging from 0.3-0.000003 μM. At 4 or 24 hr post compound addition, the cells were fixed (10% formalin in PBS) for 20 minutes. Cells were permeablized in PBS 0.1% Triton and blocked with LICOR blocking buffer (50 μl/well, 90′). The wells were then incubated overnight at 4° C. with SP1 rabbit monoclonal Ab (Thermo Scientific) diluted 1:1000 in LICOR blocking buffer/0.1% Tween-20. Wells which were treated with blocking buffer with Tween but no antibody were used as a background control. Wells were washed with 0.1% Tween-20/PBS and then incubated in goat anti-rabbit IRDye™ 800CW (LICOR Inc.; 1:1000) and DRAQ5 DNA dye (1:2000 for 2 mM stock) diluted in LICOR blocking buffer containing 0.1% Tween-20 and 0.01% SDS for 60 minutes. Cells were washed (50 μl/well, 5′ each) in 0.1% Tween-20/PBS. Plates were scanned on a LICOR Odyssey infrared imaging system. Integrated intensities in the 800 nm channel and 700 nm channel were measured to determine levels of ER and DNA respectively. Percent ER levels were determined as follows: (Integrated intensity 800 nm sample/integrated intensity 700 nm sample)/(Integrated intensity 800 nm untreated cells/integrated intensity 700 nm untreated cells)×100=% ER levels.

T1 sequence (P03372 whole entry): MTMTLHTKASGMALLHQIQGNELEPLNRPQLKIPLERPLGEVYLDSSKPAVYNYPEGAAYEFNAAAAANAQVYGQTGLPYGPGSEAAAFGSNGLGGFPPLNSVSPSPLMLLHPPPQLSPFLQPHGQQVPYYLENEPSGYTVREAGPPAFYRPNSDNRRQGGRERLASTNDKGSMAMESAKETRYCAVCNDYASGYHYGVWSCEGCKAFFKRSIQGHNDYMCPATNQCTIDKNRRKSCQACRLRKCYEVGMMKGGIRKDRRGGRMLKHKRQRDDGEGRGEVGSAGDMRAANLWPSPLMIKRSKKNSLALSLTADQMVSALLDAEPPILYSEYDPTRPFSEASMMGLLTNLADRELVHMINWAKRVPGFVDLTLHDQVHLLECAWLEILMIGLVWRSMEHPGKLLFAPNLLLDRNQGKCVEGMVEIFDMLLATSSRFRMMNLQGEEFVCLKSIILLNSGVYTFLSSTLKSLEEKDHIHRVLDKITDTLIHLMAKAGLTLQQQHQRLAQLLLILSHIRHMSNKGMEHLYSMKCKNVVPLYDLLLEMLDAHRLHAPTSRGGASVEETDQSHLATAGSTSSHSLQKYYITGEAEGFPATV

SMILES	IC50 [1] [nM]	MCF7 Viability Assay Max Response [1]	Emax [2] [%]
CC1=C(c2cccc(O)c2)C(c2ccc(OCCN3CCOC[C@@H]3C)cc2)Oc2ccc(O)cc21 (stereo partly drawn) [Example 23, 3-(3-Hydroxyphenyl)-4-methyl-2-(4-(2-((S)-3-methylmorpholino)ethoxy)phenyl)-2H-chromen-6-ol]	> 1	+ (+ = a single % value <50%)	< 60
CC1=C(c2cccc(O)c2)C(c2ccc(OCCN3CCOC[C@H]3C)cc2)Oc2ccc(O)cc21 (stereo partly drawn) [Example 24, 3-(3-Hydroxyphenyl)-4-methyl-2-(4-(2-((R)-3-methylmorpholino)ethoxy)phenyl)-2H-chromen-6-ol]	< 1	+ (+ = a single % value <50%)	< 60
CO[C@@H]1CCN([C@@H](C)COc2ccc(C3Oc4ccc(O)cc4C(C)=C3c3cccc(O)c3)cc2)C1 (stereo partly drawn) [Example 25, 3-(3-Hydroxyphenyl)-2-(4-((S)-2-((R)-3-methoxypyrrolidin-1-yl)propoxy)phenyl)-4-methyl-2H-chromen-6-ol]	< 1	++ (++ = a single % value ≧50%)	60 to 85
CC1=C(c2cccc(O)c2)C(c2ccc(OC[C@H](C)N3CC[C@@H](O)C3)cc2)Oc2ccc(O)cc21 (stereo partly drawn) [Example 26, (3R)-1-((2S)-1-(4-(6-Hydroxy-3-(3-hydroxyphenyl)-4-methyl-2H-chromen-2-yl)phenoxy)propan-2-yl)pyrrolidin-3-ol]	< 1	+ (+ = a single % value <50%)	< 60
CC1=C(c2cccc(O)c2)C(c2ccc(OC[C@H](C)N3CCOC[C@H]3C)cc2)Oc2ccc(O)cc21 (stereo partly drawn) [Example 27, 3-(3-Hydroxyphenyl)-4-methyl-2-(4-((S)-2-((R)-3-methylmorpholino)propoxy)phenyl)-2H-chromen-6-ol]	< 1	++ (++ = a single % value ≧50%)	< 60
CC1=C(c2cccc(O)c2)C(c2ccc(OC[C@H](C)N3CCN(C)C[C@H]3C)cc2)Oc2ccc(O)cc21 (stereo partly drawn) [Example 28, 2-(4-((S)-2-((R)-2,4-Dimethylpiperazin-1-yl)propoxy)phenyl)-3-(3-hydroxyphenyl)-4-methyl-2H-chromen-6-ol]	< 1	+ (+ = a single % value <50%)	< 60
CC1=C(c2cccc(O)c2)C(c2ccc(OC[C@H](C)N3CCOCC3)cc2)Oc2ccc(O)cc21 (stereo partly drawn) [Example 29, 3-(3-Hydroxyphenyl)-4-methyl-2-(4-((S)-2-morpholinopropoxy)phenyl)-2H-chromen-6-ol]	< 1	+ (+ = a single % value <50%)	60 to 85
COc1ccc2c(c1)C(C)=C(c1ccc(O)cc1)C(c1ccc(OC[C@H](C)N3CC[C@@H](C)C3)cc1)O2 (stereo partly drawn) [Example 30, 4-(6-Methoxy-4-methyl-2-(4-((S)-2-((R)-3-methylpyrrolidin-1-yl)propoxy)phenyl)-2H-chromen-3-yl)phenol]	> 1	++ (++ = a single % value ≧50%)	60 to 85
COc1cccc(C2=C(C)c3cc(O)ccc3OC2c2ccc(OC[C@H](C)N3CC[C@@H](C)C3)cc2)c1 (stereo partly drawn) [Example 31, 3-(3-Methoxyphenyl)-4-methyl-2-(4-((S)-2-((R)-3-methylpyrrolidin-1-yl)propoxy)phenyl)-2H-chromen-6-ol]	> 1	++ (++ = a single % value ≧50%)	60 to 85
